From patent US20090155209A1, “NOVEL MACROCYCLIC INHIBITORS OF HEPATITIS C VIRUS REPLICATION” (priority 2007, published 2009)

Assays:
NS3-NS4 [1] = target: T1, NS3-NS4 (Hepatitis C virus genotype 1a, UniProt P27958); experiment: cell-based; conditions: EC50, NS3-NS4 activity
NS3-NS4 [2] = target: T1, NS3-NS4; experiment: NS3-NS4 activity, IC50 (Example 37, Table 8); type: biochemical

T1 sequence (P27958 1027-1657): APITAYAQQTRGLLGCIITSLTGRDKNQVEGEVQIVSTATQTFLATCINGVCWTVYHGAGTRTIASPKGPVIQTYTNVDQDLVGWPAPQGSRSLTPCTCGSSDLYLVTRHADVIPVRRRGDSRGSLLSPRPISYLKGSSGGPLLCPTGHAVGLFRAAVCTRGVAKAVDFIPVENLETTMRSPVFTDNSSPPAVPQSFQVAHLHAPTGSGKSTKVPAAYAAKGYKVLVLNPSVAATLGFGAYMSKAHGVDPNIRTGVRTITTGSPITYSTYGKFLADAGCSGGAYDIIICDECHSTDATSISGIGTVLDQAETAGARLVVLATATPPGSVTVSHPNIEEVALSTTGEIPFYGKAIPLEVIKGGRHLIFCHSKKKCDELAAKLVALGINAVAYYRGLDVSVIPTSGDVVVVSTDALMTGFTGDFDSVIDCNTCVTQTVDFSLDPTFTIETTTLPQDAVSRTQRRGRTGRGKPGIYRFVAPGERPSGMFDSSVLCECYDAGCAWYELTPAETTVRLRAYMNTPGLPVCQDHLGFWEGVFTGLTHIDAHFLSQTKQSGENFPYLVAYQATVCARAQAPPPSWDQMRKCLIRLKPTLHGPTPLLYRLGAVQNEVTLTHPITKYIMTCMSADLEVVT
T1 sequence (P27958 1658-1711): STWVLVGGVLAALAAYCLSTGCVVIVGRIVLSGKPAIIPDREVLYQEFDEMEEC

Structure (SMILES) | EC50 (NS3-NS4 [1]) [nM] | IC50 (NS3-NS4 [2]) [nM]
CN(C(=O)N[C@H]1CCCCC/C=C\[C@@H]2C[C@@]2(C(=O)NS(=O)(=O)c2ccccc2)NC(=O)[C@@H]2C[C@@H](OC(=O)N3Cc4cccc(F)c4C3)CN2C1=O)C(C)(C)C [Compound 303, (2R,6S,13aS,14aR,16aS,Z)-6-(3-tert-butyl-3-methylureido)-5,16-dioxo-14a-(phenylsulfonylcarbamoyl)-1,2,3,5,6,7,8,9,10,11,13a,14,14a,15,16,16a-hexadecahydrocyclopropa[e]pyrrolo[1,2-a][1,4]diazacyclopentadecin-2-yl 4-fluoroisoindoline-2-carboxylate] | < 100 | < 100
CC(C)(C)OC(=O)N[C@H]1CCCCC[C@@H]2C[C@@H]2[C@@H]2C[C@@]2(C(=O)NS(=O)(=O)C2CC2)NC(=O)[C@@H]2C[C@@H](OC(=O)N3Cc4cccc(F)c4C3)CN2C1=O [Compound 902] | < 100 | < 100
CC(C)(C)OC(=O)N[C@H]1CCCCC/C=C\[C@@H]2C[C@@]2(C(=O)NS(=O)(=O)Cc2ccccc2F)NC(=O)[C@@H]2C[C@@H](OC(=O)N3Cc4cccc(F)c4C3)CN2C1=O [Compound 507] | < 100 | < 100
CC(C)(C)OC(=O)N[C@H]1CCCCC/C=C\[C@@H]2C[C@@]2(C(=O)NOCc2ccccc2)NC(=O)[C@@H]2C[C@@H](OC(=O)N3Cc4cccc(F)c4C3)CN2C1=O [Compound 107] | 1000 to 10000 | < 100
CC(C)(C)OC(=O)N[C@H]1CCCCC/C=C\[C@@H]2C[C@@]2(C(=O)NOc2ccc(-c3ccccc3)cc2)NC(=O)[C@@H]2C[C@@H](OC(=O)N3Cc4cccc(F)c4C3)CN2C1=O [Compound 710] | 1000 to 10000 | < 100
CC(C)(C)OC(=O)N[C@H]1CCCCC/C=C\[C@@H]2C[C@@]2(C(=O)NS(=O)(=O)c2cc(Cl)ccc2F)NC(=O)[C@@H]2C[C@@H](OC(=O)N3Cc4cccc(F)c4C3)CN2C1=O [Compound 314] | < 100 | < 100
CC(C)(C)OC(=O)N[C@H]1CCOCC/C=C\[C@@H]2C[C@@]2(C(=O)NS(=O)(=O)c2cc(Cl)sc2Cl)NC(=O)[C@@H]2C[C@@H](OC(=O)N3Cc4cccc(Cl)c4C3)CN2C1=O [Compound 322, (2R,6S,13aS,14aR,16aS,Z)-6-(tert-butoxycarbonylamino)-14a-(2,5-dichlorothiophen-3-ylsulfonylcarbamoyl)-5,16-dioxo-2,3,5,6,7,8,10,11,13a,14,14a,15,16,16a-tetradecahydro-1H-cyclopropa[j]pyrrolo[1,2-f][1,6,9]oxadiazacyclopentadecin-2-yl 4-chloroisoindoline-2-carboxylate] | < 100 | < 100
CC(C)(C)OC(=O)N[C@H]1CCCCCCC[C@@H]2C[C@@]2(C(=O)NOc2ccc(-c3ccccc3)cc2)NC(=O)[C@@H]2C[C@@H](OC(=O)N3Cc4cccc(F)c4C3)CN2C1=O [Compound 803] | 1000 to 10000 | < 100
CS(=O)(=O)c1ccc(-c2csc(N[C@H]3CCCCC/C=C\[C@@H]4C[C@@]4(C(=O)NS(=O)(=O)C4CC4)NC(=O)[C@@H]4C[C@@H](OC(=O)N5Cc6cccc(F)c6C5)CN4C3=O)n2)cc1 [Compound 213] | < 100 | < 100
Cc1cccc(ONC(=O)[C@@]23C[C@H]2/C=C\CCCCC[C@H](NC(=O)OC(C)(C)C)C(=O)N2C[C@H](OC(=O)N4Cc5cccc(F)c5C4)C[C@H]2C(=O)N3)c1 [Compound 702] | 1000 to 10000 | < 100
CC(C)(C)OC(=O)N[C@H]1CCCCC/C=C\C2CC2(C(=O)NOc2ccccc2)NC(=O)[C@@H]2C[C@@H](OC(=O)N3Cc4cccc(F)c4C3)CN2C1=O (stereo in doubt) [Compound 101, (2R,6S,13aS,14aR,16aS,Z)-6-(tert-butoxycarbonylamino)-5,16-dioxo-14a-(phenoxycarbamoyl)-1,2,3,5,6,7,8,9,10,11,13a,14,14a,15,16,16a-hexadecahydrocyclopropa[e]pyrrolo[1,2-a][1,4]diazacyclopentadecin-2-yl 4-fluoroisoindoline-2-carboxylate] | < 100 | < 100
O=C(N[C@H]1CCCCC/C=C\[C@@H]2C[C@@]2(C(=O)NS(=O)(=O)c2ccc(Cl)cc2)NC(=O)[C@@H]2C[C@@H](OC(=O)N3Cc4cccc(F)c4C3)CN2C1=O)OC1CCOC1 (stereo partly drawn) [Compound 334] | < 100 | < 100
CC1(OC(=O)N[C@H]2CCCCC/C=C\[C@@H]3C[C@@]3(C(=O)NS(=O)(=O)C3CC3)NC(=O)[C@@H]3C[C@@H](OC(=O)N4Cc5cccc(F)c5C4)CN3C2=O)CC1 [Compound 404, (2R,6S,13aS,14aR,16aS,Z)-14a-(cyclopropylsulfonylcarbamoyl)-6-((1-methylcyclopropoxy)carbonylamino)-5,16-dioxo-1,2,3,5,6,7,8,9,10,11,13a,14,14a,15,16,16a-hexadecahydrocyclopropa[e]pyrrolo[1,2-a][1,4]diazacyclopentadecin-2-yl 4-fluoroisoindoline-2-carboxylate] | < 100 | < 100
CC(C)(C)OC(=O)N[C@H]1CCCCC/C=C\[C@@H]2C[C@@]2(C(=O)NS(=O)(=O)c2cc(F)ccc2F)NC(=O)[C@@H]2C[C@@H](OC(=O)N3Cc4cccc(F)c4C3)CN2C1=O [Compound 307] | < 100 | < 100
CC(C)(C)OC(=O)N[C@H]1CCCCC/C=C\[C@@H]2C[C@@]2(C(=O)NS(=O)(=O)c2cc3ccccc3o2)NC(=O)[C@@H]2C[C@@H](OC(=O)N3Cc4cccc(F)c4C3)CN2C1=O [Compound 542] | 100 to 1000 | < 100
CN(C(=O)N[C@H]1CCCCC/C=C\[C@@H]2C[C@@]2(C(=O)NS(=O)(=O)c2ccccc2Cl)NC(=O)[C@@H]2C[C@@H](OC(=O)N3Cc4cccc(F)c4C3)CN2C1=O)C(C)(C)C [Compound 359] | < 100 | < 100
CC(C)(C)OC(=O)N[C@H]1CCCCC/C=C\[C@@H]2C[C@@]2(C(=O)NS(=O)(=O)c2ccccc2)NC(=O)[C@@H]2C[C@@H](OC(=O)N3Cc4cccc(F)c4C3)CN2C1=O [Compound 501] | < 100 | < 100
COCC1(S(=O)(=O)NC(=O)[C@@]23C[C@H]2CCCCCCC[C@H](NC(=O)OC(C)(C)C)C(=O)N2C[C@H](OC(=O)N4Cc5cccc(F)c5C4)C[C@H]2C(=O)N3)CC1 [Compound 652] | < 100 | < 100
COc1csc(S(=O)(=O)NC(=O)[C@@]23C[C@H]2/C=C\CCCCC[C@H](NC(=O)OC(C)(C)C)C(=O)N2C[C@H](OC(=O)N4Cc5cccc(F)c5C4)C[C@H]2C(=O)N3)c1 [Compound 541] | < 100 | < 100
CCc1cnc(N[C@H]2CCCCC/C=C\[C@@H]3C[C@@]3(C(=O)NS(=O)(=O)C3CC3)NC(=O)[C@@H]3C[C@@H](OC(=O)N4Cc5cccc(F)c5C4)CN3C2=O)s1 [Compound 230] | < 100 | < 100
O=C1N[C@]2(C(=O)NS(=O)(=O)C3CC3)C[C@H]2/C=C\CCCCC[C@H](NC(=O)C2(C(F)(F)F)CC2)C(=O)N2C[C@H](OC(=O)N3Cc4cccc(F)c4C3)C[C@@H]12 [Compound 403, (2R,6S,13aS,14aR,16aS,Z)-14a-(cyclopropylsulfonylcarbamoyl)-5,16-dioxo-6-(1-(trifluoromethyl)cyclopropanecarboxamido)-1,2,3,5,6,7,8,9,10,11,13a,14,14a,15,16,16a-hexadecahydrocyclopropa[e]pyrrolo[1,2-a][1,4]diazacyclopentadecin-2-yl 4-fluoroisoindoline-2-carboxylate] | < 100 | < 100
